PMC10060354, “Discovery of a small molecule ligand of FRS2 that inhibits invasion and tumor growth” (Cellular Oncology, 2022)
Like-named read-outs stand apart in the source and are kept apart here.

Assays:
[1] = Cell viability (cytotoxicity, MTT) using HepG2; format: cell-based, human; conditions: human, HepG2 cells, 72 h, summary sheet, read-out: MTT (AC50) Conc at which 50% of maximum efficacy is reached
Outline: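 Compounds were tested at 8 concentrations in triplicate on HepG2 cells plated 24 h beforehand, with 72 h exposure in 1% DMSO medium. MTT was loaded 1 h before the end, solubilized in DMSO and read at 570 nm. Minimum effective concentration is the lowest concentration exceeding the significance level, given dose-response or two consecutive points above it.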

[2] = test system: ERK (pT202/Y204); assay: Immunoblotting, ERK phosphorylation; format: cell-based, human
Description: (§1) Cells were serum starved o.n. and 10 µM compound or 1 µM (BGJ398) were added 3 h before stimulation with 100 ng/ml bFGF for 15 min. Cells were lysed in RIPA buffer containing protease inhibitor cocktail and lysates resolved by SDS-PAGE. Membranes were probed with primary antibodies against phospho-FRS2, FRS2, phospho-ERK1/2, ERK1/2, pAKT, AKT and tubulin. Integrated density of immuno-reactive bands was quantified using Adobe Photoshop CS3. Integrated densities of phospho bands relative to non-phospho bands of same protein were calculated and plotted as fold-change relative to untreated control conditions. Compounds and BGJ398 were added in DMSO and corresponding DMSO concentrations were used in control samples.

[3] = In vivo bioavailability / PK after 1 mg/kg IV or 10 mg/kg PO; parameters: species or system Male ICR mice; conditions: for Vd: read-out: Vss; for C0: read-out: C0 after IV administration
Description: In vivo bioavailability studies were performed by Pharmacology Discovery Services Taiwan, Ltd., (New Taipei City, Taiwan). Male ICR mice weighing 20—30 g were provided by BioLasco Taiwan (under Charles River Laboratories Licensee). Animals were acclimated for 3 days prior to use and were confirmed with good health. All animals were maintained in a hygienic environment with controlled temperature (20—24 °C), humidity (30%—70%) and 12 h light/dark cycles. Free access to sterilized standard lab diet [MFG (Oriental Yeast Co., Ltd., Japan)] and autoclaved tap water. A pharmacokinetic (PK) study was performed in male ICR mice following intravenous (IV) and oral (PO) administration of compound 7 and E12 and IV administration of the test compound 3.14. The three test compounds (7, E12 and 3.14) were formulated in 1% dimethyl sulfoxide (DMSO)/10% Solutol® HS-15/ phosphate buffered saline (PBS) at 0.2 mg/mL and 1 mg/mL for IV and PO administration, respectively. The dosing volumes were 5 ml/kg for IV and 10 ml/kg for PO. The dose was 1 mg/kg for IV and 10 mg/kg for PO routes.

[4] = test system: SKOV3; assay: SIA, collagen I invasion; format: cell-based; conditions: Homo sapiens
Description: (§2) 1000—2500 cells/well in 100 μl were seeded in 96 well Corning® Spheroid microplate (CLS4520, Sigma-Aldrich) or in cell-repellent 96 well microplate (650,790, Greiner Bio-one). SIA and analysis was performed as described before. In brief: After spheroid formation (24 – 72 h after seeding), 70 µl medium was removed and replaced with the collagen mixture (2.5 mg/ml Pure Col Collagen I (Advanced Biomatrix)), DMEM 1x (from 10 × stock, Sigma, D2429) and 0.4% Sodium bicarbonate (Sigma, S8761)), resulting in a final collagen concentration of 1.75 mg/ml. Embedded spheroids were stimulated with bFGF (100 ng/ml if not otherwise stated), HGF (30 ng /ml) or EGF (20 ng/ml) and distance of invaded cells quantified 24 – 48 h after embedding. Compounds and BGJ398 were added in Dimethylsulfoxid (DMSO) and corresponding DMSO concentrations were used in control samples.

[5] = test system: AGS; assay: SIA, collagen I invasion; format: cell-based; conditions: Homo sapiens
Description: as §2

[6] = test system: FRS2 (Y436) phosphorylation; assay: Immunoblotting, FRS2 phosphorylation; format: cell-based, human
Description: as §1

[7] = male, ICR, mouse, plasma, iv, 1 mg/kg, IV, read-out: AUClast
[8] = male, ICR, mouse, plasma, iv, 1 mg/kg, mice, 1 mg/kg IV, read-out: AUClast after IV administration
[9] = male, ICR, mouse, plasma, 1 mg/kg, IV
[10] = male, ICR, mouse, plasma, 10 mg/kg, PO
[11] = male, ICR, mouse, mice, 1 mg/kg IV, plasma

| SMILES | AC50 at 72 h [1] [µM] | AUC Extr (%) ([3]; 1 mg/kg, IV) | AUC(0-t) [3, 7] [ng·h/mL] | AUC(0-t) [3, 8] [ng·h/mL] | AUC(0-inf) [3, 9] [ng·h/mL] | MRT [3, 9] [h] | clearance [3, 9] [mL/min/kg] | half-life [3, 9] [h] | Vd [3, 9] [L/kg] | C0 [3, 11] [ng/mL] | CL1/2 after IV administration ([3]; mice, 1 mg/kg IV) [h] | other results |
| --- | --- | --- | --- | --- | --- | --- | --- | --- | --- | --- | --- | --- |
| O=[N+]([O-])c1c(Cl)cc(O)c2c1C1C=CCC1C(c1ccc(Cl)cc1Cl)N2 (centres unmarked) [Compound 8] | 12.4 | – | – | – | – | – | – | – | – | – | – | – |
| O=[N+]([O-])c1c(Cl)cc(O)c2c1C1C=CCC1C(c1ccc(Cl)cc1)N2 (centres unmarked) [Compound 7] | 7.02 | 1.2 | 393 | 398 | 398 | 0.29 | 42 | 1.14 | 0.7 | 2870 | 1.14 | basal and bFGF-induced phosphorylation of ERK (result in words) ([2]; DAOY, SW780, M059K, SKOV3, AGS, DMS114 and RT-112 cells, 10 µM compound or 1 µM BGJ398): inhibited basal and bFGF-induced phosphorylation; AUC Extr (%) ([3]; 10 mg/kg, PO): 18.1%; AUC/D ([3]; 10 mg/kg, PO): 407 kg·ng·h/mL/mg; AUClast (H*ng/ml) ([3]; 10 mg/kg, PO): 3333 H*ng/ml; AUC(0-t) ([3]; male, ICR, mouse, plasma, po, 10 mg/kg, mice, 10 mg/kg PO, read-out: AUClast after PO administration): 3330 ng·h/mL; AUC(0-inf) [3, 10]: 4070 ng·h/mL; MRT [3, 10]: 4.71 h; Tmax [3, 10]: 0.5 h; bioavailability [3, 10]: 85%; half-life [3, 10]: 3.83 h; Cmax ([3]; male, ICR, mouse, mice, 10 mg/kg PO, plasma, read-out: Cmax (oral bioavailability) after PO administration): 1400 ng/mL; CL1/2 after PO administration ([3]; mice, 10 mg/kg PO): 3.83 h; EC50 ([4]; SK-OV-3, 100 ng/ml bFGF): 4.5 µM; EC50 ([5]; 100 ng/ml bFGF): 4.66 µM; basal and bFGF-induced phosphorylation of FRS2Y436 (result in words) ([6]; RT-112 cells): reduced basal and bFGF-induced phosphorylation |
| CC(C)C[C@@H](CO)NCc1cc(O)c2cc(F)ccc2n1 [Compound 3.14] | – | 0.5 | 410 | 413 | 413 | 0.52 | 40 | 1.55 | 1.3 | 2700 | 1.55 | pERK (result in words) ([2]; SW780 and AGS cells, 10 µM): significantly reduced pERK; inhibition at 10 µM ([4]; SK-OV-3, 10 µM): ~50%; inhibition at 10 µM ([5]; 10 µM): ~50%; basal or bFGF-induced Y436 phosphorylation of FRS2 (result in words) ([6]; DAOY or SW780 cells, 10 µM compound): not effective in SW780 cells |
